Measured values published in US20240148900A1, “IMMUNOSTIMULATORY CYCLIC DI-NUCLEOTIDE DELIVERY SYSTEM COMPOSITIONS AND METHOD OF USE THEREOF” (VIRGINIA COMMONWEALTH UNIVERSITY, priority 2021, published 2024).

Tests used:
RAW264.7 macrophages = assay: Cell uptake of FluoCDG by flow cytometry; assay type: cell-based, murine; details: FluoCDG 0.5 μg/mL; free CDG over 2 h, formulations 0.5 h post incubation
Protocol: CDG release from STING-NVs. First, STING-NVs were dispersed in 1 mL of 1×PBS at different pH and agitated at 200 rpm. Then the mixture was ultra-filtrated at each hour point. The filtrate was taken for CDG detection, and the same volume of fresh buffer was added back to the residual mixture. The amount of released CDG in the filtrate was determined by measuring the absorption at 254 nm using a UV-Vis spectrometer. Lipo-CDG Synthesis. DOTAP, cholesterol, and DSPE-PEG(2000) were purchased from Avanti Polar Lipids. Lipids were mixed at molar ratios of 1:1:0.2 DOTAP:cholesterol:DSPE-PEG(2000). Lipid mixtures were dried under a nitrogen stream in glass test tubes. The resulting lipid films were placed in a desiccation system overnight. […] The CDG content of the liposomes was determined by measuring the absorbance peak of the liposomes at 254 nm, corresponding to the maximum absorbance of CDG, subtracting the lipid contribution to absorbance at this wavelength. […] Secreted IFN-α was quantified with the LumiKine Xpress mIFN-α enzyme-linked immunosorbent assay kit (InvivoGen). Secreted IL-6 and IL-12 were quantified with the Mouse IL-6 Quantikine™ ELISA Kit (R&D Systems). […] Cells were analyzed for fluorescein signal (from fluorescein-modified CDG) on the CytoFLEX LX (Beckman Coulter) flow cytometer.

[1] = Stability of CDG in 10% FBS-supplemented cell culture medium; assay type: in vitro ADME; details: 7 days in cell culture medium with 10% serum, 37° C., absorption at 254 nm
Excerpt: FIG. 1A-H. Characterization of STING-NVs. (a) UV-vis absorbance spectra of PEG-b-PLA NPs, 5c-i-motif DNA, and 5c-NPs. […] Lane legends: 1: 25 bp DNA ladder; 2: 9C-i-motif; 3: 3C-NPs; 4: 5C-NPs; 5: 7C-NPs; 6: 9C-NPs. (c) DLS graphs showing the hydrodynamic diameters of 5C-NPs (79±34 nm, PDI 0.157) and STING-NVs (81±32 nm, PDI 0.131). (d) A TEM image of STING-NVs. (e) Zeta potential of blank NPs, CDG-loaded NPs, and Lipo-CDG. STING-NVs: CDG-loaded 5C-NPs. (f) Stability of free CDG and CDG loaded in STING-NVs over 7-day incubation in 10% FBS-supplemented cell culture medium (37° C.). A254nm: 254 nm absorption from CDG; A560nm: 560 nm absorption from medium as an internal reference. (g, h) MST traces (g) and fitting curve (h) of the kinetic interaction between 5C-NPs and CDG at pH 7.4. Data represent mean±standard deviation (SD) (n=3).
The ability of STING-NVs to promote the biostability of CDG is presumably due to the steric hindrance of i-motif-NPs that prevent the access of nucleases. Using HPLC and microscale thermophoresis (MST), we further studied the binding of CDG with 5C-i-motifs, which is the basis for CDG loading into i-motif-modified NPs. In HPLC, relative to free CDG and 5C-i-motif, the delayed elution time of physically mixed CDG and 5C-i-motif indicated the complexation of CDG and 5C-i-motif (FIG. 10). […]

Compound: Nc1nc2c(ncn2[C@@H]2O[C@@H]3COP(=O)(O)O[C@H]4[C@@H](O)[C@H](n5cnc6c(=O)[nH]c(N)nc65)O[C@@H]4COP(=O)(O)O[C@H]3[C@H]2O)c(=O)[nH]1 [free CDG, cyclic dimeric guanosine monophosphate]
- FluoCDG fluorescence signal enhancement (RAW264.7 macrophages): only slight FluoCDG signal enhancement
- intact CDG [1]: 2.3%
